According to patent publication US10301304B2, “Selective inhibitor of phosphatidylinositol 3-kinase-gamma” (VERTEX PHARMACEUTICALS INCORPORATED, priority 2013, dated 2019):
Like-named read-outs stand apart in the source and are kept apart here.

Legend:
CYP3A4 = CYP3A4 Induction in Human Hepatocytes; assay type: in vitro ADME
Procedure: CYP activity was determined by monitoring metabolite formation of specific CYP probe substrates (phenacetin for CYP1A2 and testosterone for CYP3A4) using LC-MS/MS. CYP messenger ribonucleic acid (mRNA) was analyzed by RT-PCR to confirm CYP induction potential.

[1] = Tissue Distribution in Rats; assay type: in vivo, rat; conditions: 5 mg/kg oral; for Kp at 0.5 h / Kp at 0.5 hr: 0.5 hr post dose; for Kp at 2 h / Kp at 2 hr: 2 hr post dose; for Kp at 7 h / Kp at 7 hr: 7 hr post dose; for Kp at 24 h / Kp at 24 hr: 24 hr post dose
Procedure: Compound 1 distributed well into most tissues after an oral dose of 5 mg/kg administered to male rats. […] The tissue to plasma ratio followed the trend of liver>kidney>heart>lung>spleen>brain>CSF. The elimination kinetics of Compound 1 in each examined organ followed plasma kinetics. There was no evidence for tissue accumulation of Compound 1 after a single dose administration.

[2] = male, CSF (relative to plasma), rat, read-out: Tissue to Plasma Ratio, CSF
[3] = male, brain (relative to plasma), rat, read-out: Tissue to Plasma Ratio, Brain
[4] = male, brain, rat, read-out: Tissue to Plasma Ratio, Brain
[5] = male, heart, rat, read-out: Tissue to Plasma Ratio, Heart
[6] = male, kidney, rat, read-out: Tissue to Plasma Ratio, Kidney
[7] = male, liver, rat, read-out: Tissue to Plasma Ratio, Liver

Cc1cc(-c2cncc([C@@H](O)C(F)(F)F)c2)nc2c1C(=O)N(c1cnn(CC(F)F)c1)C2(C)C [Compound 1, (R)-6-(1-(2,2-difluoroethyl)-1H-pyrazol-4-yl)-4,7,7-trimethyl-2-(5-(2,2,2-trifluoro-1-hydroxyethyl)pyridin-3-yl)-6,7-dihydro-5H-pyrrolo[3,4-b]pyridin-5-one]
CYP3A4 mRNA message (CYP3A4; 0.5 μM, lot 8123): 0.4 fold change
Testosterone-6β-Hydroxylation (CYP3A4; 0.5 μM, lot 8123): 0.3 fold change
CYP3A4 mRNA message (CYP3A4; 0.5 μM, lot LMP): 1.0 fold change
Testosterone-6β-Hydroxylation (CYP3A4; 0.5 μM, lot LMP): 0.9 fold change
CYP3A4 mRNA message (CYP3A4; 0.5 μM, lot YOW): 1.3 fold change
Testosterone-6β-Hydroxylation (CYP3A4; 0.5 μM, lot YOW): 1.0 fold change
CYP3A4 mRNA message (CYP3A4; 1.0 μM, lot 8123): 0.3 fold change
Testosterone-6β-Hydroxylation (CYP3A4; 1.0 μM, lot 8123): 0.5 fold change
CYP3A4 mRNA message (CYP3A4; 1.0 μM, lot LMP): 0.7 fold change
Testosterone-6β-Hydroxylation (CYP3A4; 1.0 μM, lot LMP): 0.8 fold change
CYP3A4 mRNA message (CYP3A4; 1.0 μM, lot YOW): 0.2 fold change
Testosterone-6β-Hydroxylation (CYP3A4; 1.0 μM, lot YOW): 0.8 fold change
CYP3A4 mRNA message (CYP3A4; 5.0 μM, lot 8123): 0.5 fold change
Testosterone-6β-Hydroxylation (CYP3A4; 5.0 μM, lot 8123): 0.4 fold change
CYP3A4 mRNA message (CYP3A4; 5.0 μM, lot LMP): 1.1 (1.1) fold change
Testosterone-6β-Hydroxylation (CYP3A4; 5.0 μM, lot LMP): 1.1 (1.1) fold change
Testosterone-6β-Hydroxylation (CYP3A4; 5.0 μM, lot YOW): 0.9 (NR^1) fold change
CYP3A4 mRNA message (CYP3A4; 10.0 μM, lot 8123): 1.1 fold change
Testosterone-6β-Hydroxylation (CYP3A4; 10.0 μM, lot 8123): 0.4 fold change
CYP3A4 mRNA message (CYP3A4; 10.0 μM, lot LMP): 1.5 fold change
Testosterone-6β-Hydroxylation (CYP3A4; 10.0 μM, lot LMP): 1.1 fold change
Testosterone-6β-Hydroxylation (CYP3A4; 10.0 μM, lot YOW): 0.8 (NR^1) fold change
CYP3A4 mRNA message (CYP3A4; 20.0 μM, lot 8123): 0.7 fold change
Testosterone-6β-Hydroxylation (CYP3A4; 20.0 μM, lot 8123): 0.6 fold change
CYP3A4 mRNA message (CYP3A4; 20.0 μM, lot LMP): 3.0 fold change
Testosterone-6β-Hydroxylation (CYP3A4; 20.0 μM, lot LMP): 1.4 fold change
Testosterone-6β-Hydroxylation (CYP3A4; 20.0 μM, lot YOW): 0.6 (NR^1) fold change
Testosterone-6β-Hydroxylation (CYP3A4; 30.0 μM, lot 8123): 0.7 (NR^2) fold change
CYP3A4 mRNA message (CYP3A4; 30.0 μM, lot LMP): 2.5 fold change
Testosterone-6β-Hydroxylation (CYP3A4; 30.0 μM, lot LMP): 1.0 fold change
Testosterone-6β-Hydroxylation (CYP3A4; 30.0 μM, lot YOW): 0.6 (NR^1) fold change
change in CYP3A4 activity and mRNA levels, % of the positive control (CYP3A4; all three hepatocyte lots, 48 hour exposure): less than 20%
Cmax, brain ([1]; male rats): 111 ng/g
Cmax, kidney ([1]; male rats): 4770 ng/g
Cmax, liver ([1]; male rats): 11400 ng/g
tissue to plasma ratio trend ([1]; male rats, in words): liver>kidney>heart>lung>spleen>brain>CSF
Kp at 0.5 h [1, 2]: 0.01
Kp at 2 h [1, 2]: 0.01
Kp at 7 h [1, 2]: 0.01
Kp at 24 h [1, 2]: 0.01
Kp at 7 h [1, 3]: 0.05
Kp at 24 h [1, 3]: 0.06
Kp at 0.5 h [1, 4]: 0.04
Kp at 2 h [1, 4]: 0.07
Kp at 48 h ([1]; male, brain, rat, 48 hr post dose, read-out: Tissue to Plasma Ratio, Brain): 0.07
Kp at 0.5 hr [1, 5]: 0.98
Kp at 2 hr [1, 5]: 1.67
Kp at 7 hr [1, 5]: 1.4
Kp at 24 hr [1, 5]: 1.46
Kp at 48 hr ([1]; male, heart, rat, 48 hr post dose, read-out: Tissue to Plasma Ratio, Heart): 1.39
Kp at 0.5 hr [1, 6]: 1.75
Kp at 2 hr [1, 6]: 2.54
Kp at 7 hr [1, 6]: 2.16
Kp at 24 hr [1, 6]: 3.03
Kp at 48 hr ([1]; male, kidney, rat, 48 hr post dose, read-out: Tissue to Plasma Ratio, Kidney): 4.76
Kp at 0.5 h [1, 7]: 4.96
Kp at 2 h [1, 7]: 6.99
Kp at 7 h [1, 7]: 5.13
Kp at 24 h [1, 7]: 5.69
